From US10065934B2, “Substituted urea derivatives and pharmaceutical uses thereof” (SUNSHINE LAKE PHARMA CO., LTD., priority 2014, dated 2018)
Where two headings read alike, the source gives them in different places.

Tests used:
FLT3 kinase = target: T1, FLT3 kinase (Homo sapiens, UniProt P36888); assay: In vitro enzymatic inhibitory activity (kinase reaction, FAM-labeled peptide); format: biochemical; settings: in vitro enzymatic inhibition
T1 sequence (P36888 27-993): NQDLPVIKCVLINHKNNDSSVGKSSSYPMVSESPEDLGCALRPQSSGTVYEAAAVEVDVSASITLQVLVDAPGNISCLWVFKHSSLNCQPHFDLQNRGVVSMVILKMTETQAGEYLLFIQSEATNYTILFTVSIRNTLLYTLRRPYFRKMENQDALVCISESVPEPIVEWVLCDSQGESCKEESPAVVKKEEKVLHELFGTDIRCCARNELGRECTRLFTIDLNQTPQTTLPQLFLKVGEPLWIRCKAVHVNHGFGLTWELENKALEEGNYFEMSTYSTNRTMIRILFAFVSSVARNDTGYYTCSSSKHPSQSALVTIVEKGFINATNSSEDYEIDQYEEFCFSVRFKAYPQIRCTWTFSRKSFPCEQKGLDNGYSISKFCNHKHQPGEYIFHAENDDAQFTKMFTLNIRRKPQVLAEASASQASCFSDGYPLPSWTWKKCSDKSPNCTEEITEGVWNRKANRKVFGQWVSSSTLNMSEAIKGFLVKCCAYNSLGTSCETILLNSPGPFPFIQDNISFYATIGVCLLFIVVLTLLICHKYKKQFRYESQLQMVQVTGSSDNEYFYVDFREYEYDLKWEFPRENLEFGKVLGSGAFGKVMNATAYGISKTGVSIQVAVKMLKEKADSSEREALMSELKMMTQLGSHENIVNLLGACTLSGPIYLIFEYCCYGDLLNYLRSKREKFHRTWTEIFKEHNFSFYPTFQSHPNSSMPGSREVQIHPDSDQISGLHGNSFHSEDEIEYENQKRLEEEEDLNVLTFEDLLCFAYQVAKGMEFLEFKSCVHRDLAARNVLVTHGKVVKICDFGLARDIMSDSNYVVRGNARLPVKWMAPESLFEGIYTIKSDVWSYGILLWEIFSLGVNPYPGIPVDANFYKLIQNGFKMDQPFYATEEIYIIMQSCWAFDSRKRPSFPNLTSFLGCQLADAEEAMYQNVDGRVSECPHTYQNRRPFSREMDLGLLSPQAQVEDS

MV-4-11 cell = assay: In vitro cytology inhibitory activity (MV-4-11 cell proliferation, cell viability luminescence); format: cell-based; settings: Homo sapiens, MV4-11; MV-4-11 cells, 72 h incubation
Procedure: Cell assay condition was shown below:
a. A complete medium was prepared and mixed well. b. Cell was recovered, and cell lines of between about two generations in good condition of growth were selected. c. The cell culture flasks were removed from the incubator, and the labeled cell name on the bottles, culture medium type and cell algebra were checked. d. The cell suspension was pipette into a centrifuge tube, and centrifuged at 800-1000 rpm for 3-5 minutes. e. Cell supernatant of the centrifuge tube was aspirated. f. Appropriate volume of culture medium was added into the centrifuge tube, and the cells were resuspended by gentle pipetting uniform. g. Vi-Cell XR cytometer was used for count. h. The cell suspension was adjusted to the appropriate concentration. i. The cell suspension was added to the bottom wall of the white 96-well plate, 100 microliters/well. Cells name, kind of board density and date were detailed labeled, and the culture plate was placed in CO2 incubator overnight.
2. Preparation and Addition of the Test Compounds
i) Preparation of test compound plates by diluting to 10 concentrations with DMSO: first, the test compound stock solution was prepared by dissolving a weighed compound in DMSO to a concentration of 10 mM, and then diluted to the concentration of 4 mM, which was then diluted to the concentration of 0.4 mM used as the highest concentration for testing with DMSO. The highest concentration was sequentially followed by 3-fold dilution for a total of 10 concentrations. Staurosporine was the positive control drug. ii) Addition of test compounds: a. 0.5 μL of test compound prepared above in compound plate was added into the cell culture plate that had been incubated overnight. Then the culture plate was incubated in an incubator at 37° C. for 72 hours.
3. Detection and Analysis
a. 72 hours after the compound treatment, cells was observed under an inverted microscope morphology, and cell growth state in DMSO control well was normal, there was no contamination. b. The cell culture plate was placed in equilibrium at room temperature for 30 minutes. c. The cell viability detection reagent at 100 μL/well was placed into culture plate. d. The mixture in culture plate was mixed two minutes in the vibration plate machine to induce cell lysis. e. 96-well plate was placed for 10 minutes at room temperature, making it stable luminescent signal. f. White base film was pasted on the bottom of the culture plate, and the plate was tested by using Flexstation3 (related to: light, integration time 500 ms). g. Experimental results were recorded and analyzed.

[1] = Evaluation of pharmacokinetic activity in male SD rats (iv and oral); format: in vivo; settings: rat, plasma; for Cmax: read-out: Cmax
Procedure: 1. Preparation of the Test Compound Solutions
The test compound solutions were prepared using appropriate amounts of 5% DMSO, 5% KolliphorHS15 and 90% Saline to dissolve each compound completely.
140-190 g male SD rats were randomly divided into two groups. One group was administered through intravenous drug delivery with the dosage of 1.0 or 2.0 mg/kg, and the other group was administered by oral with the dosage of 5.0 mg/kg. For intravenous administration, caudal vein blood samples at the time points of 0.0833, 0.25, 0.5, 1.0, 2.0, 4.0, 6.0, 8.0 and 24 h were collected after drug administration (the time point of drug administration was set as 0 h); and for oral administration, caudal vein blood samples at the time points of 0.25, 0.5, 1.0, 2.0, 4.0, 6.0, 8.0 and 24 h were collected after drug administration (the time point of drug administration was set as 0 h). Appropriate range of standard curve was established according to the sample concentration, and the test compound concentrations in plasma sample were measured by LC-MS/MS analysis. Pharmacokinetic parameters were calculated by non-compartmental method using WinNonLin 6.3 software based on drug concentration-time curves.

SMILES: CC(C)(C)c1cc(NC(=O)Nc2ccc(C#Cc3ccc(OCCCN4CCOCC4)c(F)c3)cc2)no1 [Example 1, 1-(5-(tert-Butyl)isoxazol-3-yl)-3-(4-((3-fluoro-4-(3-morpholinopropoxy)phenyl)ethynyl)phenyl)urea]
- IC50 (FLT3 kinase): 115 nM

SMILES: CC(C)(C)c1cc(NC(=O)Nc2ccc(C#Cc3ccc(OCCCN4CCOCC4)c(Cl)c3)cc2)no1 [Example 2, 1-(5-(tert-Butyl)isoxazol-3-yl)-3-(4-((3-chloro-4-(3-morpholinopropoxy)phenyl)ethynyl)phenyl) urea]
- IC50 (FLT3 kinase): 75 nM

SMILES: CC(C)(C)c1cc(NC(=O)Nc2ccc(C#Cc3ccc(OCCCN4CCOCC4)c(C(F)(F)F)c3)cc2)no1 [Example 3, 1-(5-(tert-Butyl)isoxazol-3-yl)-3-(4-((4-(3-morpholinopropoxy)-3-(trifluoromethyl)phenyl)ethynyl)phenyl)urea]
- IC50 (FLT3 kinase): 62 nM

SMILES: CC(C)(C)c1cc(NC(=O)Nc2ccc(C#Cc3ccc(OCCCN4CCOCC4)cc3Cl)cc2)no1 [Example 5, 1-(5-(tert-Butyl)isoxazol-3-yl)-3-(4-((2-chloro-4-(3-morpholinopropoxy)phenyl)ethynyl)phenyl)urea]
- IC50 (FLT3 kinase): 189 nM

SMILES: CC(C)(C)c1cc(NC(=O)Nc2ccc(C#Cc3cnc4ccc(OCCCN5CCOCC5)nn34)cc2)no1 [Example 7, 1-(5-(tert-Butyl)isoxazol-3-yl)-3-(4-((6-(3-morpholinopropoxy)imidazo[1,2-b]pyridazin-3-yl)ethynyl)phenyl)urea]
- IC50 (MV-4-11 cell): 3.2 nM

SMILES: CC(C)(C)c1cc(NC(=O)Nc2ccc(C#Cc3cnc4c(OCCN5CCOCC5)ccnn34)cc2)no1 [Example 9, 1-(5-(tert-Butyl)isoxazol-3-yl)-3-(4-((8-(2-morpholinoethoxy)imidazo[1,2-b]pyridazin-3-yl)ethynyl)phenyl)urea]
- AUC(0-inf) ([1]; iv, 1 mg/kg): 1390 ng·h/mL
- AUC(0-t) ([1]; iv, 1 mg/kg): 1330 ng·h/mL
- Tmax ([1]; iv, 1 mg/kg): 0.083 h
- half-life ([1]; iv, 1 mg/kg): 1.7 h
- Cmax ([1]; iv, 1 mg/kg): 793 ng/mL
- Vd ([1]; iv, 1 mg/kg, read-out: Vss): 1.62 L/kg
- bioavailability ([1]; po 5 mg/kg vs iv 1 or 2 mg/kg): 116%
- AUC(0-inf) ([1]; po, 5 mg/kg): 8030 ng·h/mL
- AUC(0-t) ([1]; po, 5 mg/kg): 8010 ng·h/mL
- Tmax ([1]; po, 5 mg/kg): 2.67 h
- half-life ([1]; po, 5 mg/kg): 2.85 h
- Cmax ([1]; po, 5 mg/kg): 1090 ng/mL

SMILES: CC(C)(C)c1cc(NC(=O)Nc2ccc(C#Cc3ccc(OCCCN4C[C@@H]5OCCO[C@@H]5C4)cc3)cc2)no1 [Example 11, 1-(5-(tert-butyl)isoxazol-3-yl)-3-(4-((4-(3-((4aR,7aS)-tetrahydro-2H-[1,4]dioxino[2,3-c]pyrrol-6(3H)-yl)propoxy)phenyl)ethynyl)phenyl)urea]
- IC50 (FLT3 kinase): 169 nM

SMILES: CC(C)(C)c1cc(NC(=O)Nc2ccc(C#Cc3ccc(OCCCN4CCOCC4)nc3)cc2)no1 [Example 17, 1-(5-(tert-Butyl)isoxazol-3-yl)-3-(4-((6-(3-morpholinopropoxy)pyridin-3-yl)ethynyl)phenyl) urea]
- IC50 (MV-4-11 cell): 11.7 nM

SMILES: CC(C)(C)c1cc(NC(=O)Nc2ccc(C#Cc3ccc(OCCCN4CCC5(COC5)C4)cc3)cc2)no1 [Example 19, 1-(4-((4-(3-(2-Oxa-6-azaspiro[3.4]octan-6-yl)propoxy)phenyl)ethynyl)phenyl)-3-(5-(tert-butyl)isoxazol-3-yl)urea]
- IC50 (MV-4-11 cell): 13.8 nM

SMILES: CC(C)(C)c1cc(NC(=O)Nc2ccc(C#Cc3ccc(OCCCN4CCOCC4)cc3)cc2)no1 [Example 21, 1-(5-(tert-Butyl)isoxazol-3-yl)-3-(4-((4-(3-morpholinopropoxy)phenyl)ethynyl)phenyl)urea]
- IC50 (MV-4-11 cell): 2.8 nM

SMILES: CC(C)(C)c1cc(NC(=O)Nc2ccc(C#Cc3ccc(OCCCN4CCOCC4)cc3)cc2F)no1 [Example 81, 1-(5-(tert-Butyl)isoxazol-3-yl)-3-(2-fluoro-4-((4-(3-morpholinopropoxy)phenyl)ethynyl)phenyl)urea]
- IC50 (MV-4-11 cell): 4.7 nM

SMILES: CC(C)(C)c1cc(NC(=O)Nc2ccc(C#Cc3ccc(OCCC[N+]4([O-])CCOCC4)cc3)cc2)no1 [Example 82, 4-(3-(4-((4-(3-(5-(tert-Butyl)isoxazol-3-yl)ureido)phenyl)ethynyl)phenoxy)propyl)morpholine 4-oxide]
- IC50 (MV-4-11 cell): 3 nM

SMILES: CC(C)(C)c1cc(NC(=O)Nc2ccc(C#Cc3ccc(OCCC[N+]4([O-])CCOCC4)cc3F)cc2)no1 [Example 83, 4-(3-(4-((4-(3-(5-(tert-Butyl)isoxazol-3-yl)ureido)phenyl)ethynyl)-3-fluorophenoxy)propyl) morpholine 4-oxide]
- IC50 (MV-4-11 cell): 2.3 nM

SMILES: CC(C)(CO)c1cc(NC(=O)Nc2ccc(C#Cc3ccc(OCCCN4CCOCC4)cc3)cc2)no1 [Example 84, 1-(5-(1-Hydroxy-2-methylpropan-2-yl)isoxazol-3-yl)-3-(4-((4-(3-morpholinopropoxy)phenyl)ethynyl)phenyl)urea]
- IC50 (MV-4-11 cell): 2.1 nM

SMILES: CC(C)(CO)c1cc(NC(=O)Nc2ccc(C#Cc3ccc(OCCCN4CCOCC4)cc3F)cc2)no1 [Example 85, 1-(4-((2-Fluoro-4-(3-morpholinopropoxy)phenyl)ethynyl)phenyl)-3-(5-(1-hydroxy-2-methylpropan-2-yl)isoxazol-3-yl)urea]
- IC50 (MV-4-11 cell): 1.6 nM

SMILES: CC(C)(C)c1cc(NC(=O)Nc2ccc(C#Cc3ccc(OCCCN4CCOCC4)c(O)c3)cc2)no1 [Example 86, 1-(5-(tert-Butyl)isoxazol-3-yl)-3-(4-((3-hydroxy-4-(3-morpholinopropoxy)phenyl)ethynyl)phenyl)urea]
- IC50 (MV-4-11 cell): 0.9 nM

SMILES: CC(C)(C)c1cc(NC(=O)Nc2ccc(C#Cc3ccc(OCCCN4CCOCC4)cc3)cc2O)no1 [Example 87, 1-(5-(tert-butyl)isoxazol-3-yl)-3-(2-hydroxy-4-((4-(3-morpholinopropoxy)phenyl)ethynyl)phenyl)urea]
- IC50 (MV-4-11 cell): 25.5 nM

SMILES: CC(C)(CO)c1cc(NC(=O)Nc2ccc(C#Cc3ccc(OCCC[N+]4([O-])CCOCC4)cc3)cc2)no1 [Example 88, 4-(3-(4-((4-(3-(5-(1-Hydroxy-2-methylpropan-2-yl)isoxazol-3-yl)ureido)phenyl)ethynyl)phenoxy)propyl)morpholine 4-oxide]
- IC50 (MV-4-11 cell): 1.8 nM

SMILES: CC(C)(CO)c1cc(NC(=O)Nc2ccc(C#Cc3ccc(OCCC[N+]4([O-])CCOCC4)cc3F)cc2)no1 [Example 89, 4-(3-(3-Fluoro-4-((4-(3-(5-(1-hydroxy-2-methylpropan-2-yl)isoxazol-3-yl)ureido)phenyl)ethynyl)phenoxy)propyl)morpholine 4-oxide]
- IC50 (MV-4-11 cell): 4.8 nM
